Some test systems named below: A549; ACHN; SN12C; TK-10; UO-31; SF-295; UACC-62; 786-0; HCT-116; IGROV-1; NCI-H522; KM12; K562; RPMI-8226; LOX IMVI; HT-29.
What all share (assay): inhibition of tumour cell growth, NCI panel, 48 h

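All cell lines were grown in 96-well plates and treated with compound for 48 hours. Abbreviation: GI50, concentration required for 50% inhibition of growth.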 The source made the active and inactive calls. Rule as the data show it: active = GI50 up to about 1.1 µM and inactive = higher.

Here are results for twelve compounds from ChEMBL document CHEMBL1201862, “PubChem BioAssay data set” (2004).

For `O=C(COc1ccccc1)NS(=O)(=O)c1ccccc1`, the GI50 with A549, in the experiment with ACHN, with SN12C, with TK-10, in the experiment on UO-31 and with SF-295 was > 100 µM (inactive) each time. Besides, the GI50 in the experiment with UACC-62, in the experiment on 786-0, in the experiment with HCT-116, in the experiment on IGROV-1, in the experiment with NCI-H522 and with KM12 was > 100 µM (inactive) throughout. Besides, the GI50 in the experiment on K562, with RPMI-8226, in the experiment with LOX IMVI and in the experiment on HT-29 was > 100 µM (inactive) each time.
Take `CC(=O)NC1=C(C)C(=O)c2c(nc3n2CCC3OC(=O)CCl)C1=O` (stereo unspecified): the GI50 is 12.9 µM (inactive) with A549; 20.7 µM (inactive) in the experiment with ACHN; 11.7 µM (inactive) in the experiment on SN12C; 21 µM (inactive) in the experiment with TK-10; 18 µM (inactive) in the experiment with UO-31; 16.1 µM (inactive) in the experiment with SF-295. Moreover, the GI50 in the experiment on UACC-62 is 2.81 µM (inactive); in the experiment with 786-0, 9.48 µM (inactive); in the experiment with HCT-116, 2.3 µM (inactive); in the experiment with IGROV-1, 11.8 µM (inactive); with NCI-H522, 3.05 µM (inactive); with KM12, 15.6 µM (inactive). Further, the GI50 in the experiment on K562 is 2.19 µM (inactive); with RPMI-8226 it was 2.65 µM (inactive); with LOX IMVI it was 4.15 µM (inactive); in the experiment on HT-29, 15.6 µM (inactive).
In the case of `Cc1c(C(=O)CC(=O)C(=O)Nc2cc(Cl)ccc2Cl)[n+]([O-])c2ccccc2[n+]1[O-]`, the GI50 is 40.1 µM (inactive) with A549; > 100 µM (inactive) with ACHN; 36.8 µM (inactive) in the experiment on SN12C; > 100 µM (inactive) with TK-10; > 100 µM (inactive) in the experiment on UO-31; > 100 µM (inactive) in the experiment with SF-295. The GI50 in the experiment with UACC-62 is 19.5 µM (inactive); in the experiment on 786-0 it was 61.5 µM (inactive); in the experiment with HCT-116 it was 35.4 µM (inactive); in the experiment with IGROV-1 it was 36.9 µM (inactive); in the experiment with NCI-H522 it was 23.1 µM (inactive); in the experiment with KM12, 37.3 µM (inactive). Also, the GI50 with K562 is 72.4 µM (inactive); in the experiment on RPMI-8226 it was 21.7 µM (inactive); in the experiment on LOX IMVI, 27.4 µM (inactive); in the experiment on HT-29, 28.5 µM (inactive).
Consider `CC(=O)NNc1nc(C)c(C(/C=C/c2ccc(Cl)cc2)=N\N=C(N)N)s1`, for which the GI50 with A549, in the experiment with ACHN, in the experiment with SN12C, in the experiment on TK-10, in the experiment on UO-31 and with SF-295 was > 100 µM (inactive) each time. Besides, the GI50 with UACC-62, in the experiment on 786-0, in the experiment with HCT-116, in the experiment on IGROV-1, in the experiment on NCI-H522 and in the experiment on KM12 was > 100 µM (inactive) each time. The GI50 with K562, with RPMI-8226, in the experiment with LOX IMVI and in the experiment on HT-29 was > 100 µM (inactive) each time.
Consider `COC(=O)C12OCC34C(CC5C(C)C6=CC(=O)OC6=CC5(C)C3C(O)C1O)OC(=O)C(O)C24` (stereo unspecified), for which the GI50 in the experiment on A549 was 1.1 µM (active); in the experiment on ACHN, 0.895 µM (active); with SN12C it was 1.48 µM (inactive); in the experiment with TK-10 it was 1.42 µM (inactive); in the experiment on UO-31, 16.1 µM (inactive); in the experiment on SF-295, 1.53 µM (inactive). Besides, the GI50 was 0.319 µM (active) in the experiment with UACC-62; 0.594 µM (active) with 786-0; 0.306 µM (active) in the experiment on HCT-116; 0.23 µM (active) in the experiment with IGROV-1; 0.533 µM (active) with NCI-H522; 1.21 µM (inactive) in the experiment with KM12. Moreover, the GI50 in the experiment on K562 is 0.205 µM (active); with RPMI-8226 it was 0.0809 µM (active); in the experiment with LOX IMVI, 0.157 µM (active); in the experiment on HT-29 it was 0.217 µM (active).
Turning to `N#CC(C(=O)CCC(=O)Nc1ccc(Cl)cc1)c1ccc(Cl)cc1` (stereo unspecified), the GI50 was > 100 µM (inactive) in the experiment with A549; 77.1 µM (inactive) with ACHN; > 100 µM (inactive) with SN12C; > 100 µM (inactive) in the experiment with TK-10; > 100 µM (inactive) in the experiment with UO-31; > 100 µM (inactive) in the experiment on SF-295. Besides, the GI50 with UACC-62 is 10.7 µM (inactive); in the experiment with 786-0 it was > 100 µM (inactive); in the experiment with HCT-116 it was 65.9 µM (inactive); with IGROV-1, 89.5 µM (inactive); with NCI-H522, > 100 µM (inactive); in the experiment with KM12, 91.8 µM (inactive). Moreover, the GI50 with K562 is 18.9 µM (inactive); with RPMI-8226, > 100 µM (inactive); with LOX IMVI, 78.5 µM (inactive); in the experiment on HT-29, > 100 µM (inactive).
Turning to `Nc1c(S(=O)(=O)c2ccccc2)c2nc3ccccc3nc2n2c1nc1ccccc12`, the GI50 is > 51.5 µM (inactive) with A549; > 64.4 µM (inactive) with ACHN; > 48.1 µM (inactive) in the experiment on SN12C; > 100 µM (inactive) in the experiment on TK-10; > 100 µM (inactive) with UO-31; > 34.7 µM (inactive) with SF-295. Moreover, the GI50 in the experiment on UACC-62 was > 62.8 µM (inactive); in the experiment with 786-0 it was 8.09 µM (inactive); with HCT-116 it was 56.2 µM (inactive); in the experiment with IGROV-1, > 57.3 µM (inactive); in the experiment on NCI-H522 it was 36.5 µM (inactive); in the experiment on KM12 it was > 64 µM (inactive). Also, the GI50 in the experiment on K562 was 22.4 µM (inactive); in the experiment on RPMI-8226, > 100 µM (inactive); in the experiment with LOX IMVI, > 60.8 µM (inactive); with HT-29, > 84.1 µM (inactive).
On to `N#CC12Cc3ccc4c(c3-c3cccc(c31)CCN2C(=O)c1ccccc1)OCO4` (stereo unspecified), for which the GI50 was > 100 µM (inactive) with A549; 71.8 µM (inactive) in the experiment with ACHN; > 100 µM (inactive) with SN12C; > 100 µM (inactive) in the experiment with TK-10; > 100 µM (inactive) in the experiment on UO-31; > 100 µM (inactive) in the experiment on SF-295. The GI50 in the experiment with UACC-62 was > 100 µM (inactive); with 786-0 it was 71.6 µM (inactive); in the experiment with HCT-116, > 100 µM (inactive); in the experiment with IGROV-1, > 100 µM (inactive); in the experiment with NCI-H522 it was > 10 µM (inactive); with KM12 it was > 100 µM (inactive). Besides, the GI50 in the experiment on K562, with RPMI-8226, in the experiment on LOX IMVI and in the experiment on HT-29 was > 100 µM (inactive) in each case.
Regarding `COc1cc2cc3c4c(cc(OC)c(OC)c4c2cc1OC)CCN3`, the GI50 was > 100 µM (inactive) in the experiment with A549; 32.5 µM (inactive) with ACHN; 46.7 µM (inactive) with SN12C; 74.5 µM (inactive) in the experiment on TK-10; 69.2 µM (inactive) with UO-31; 37 µM (inactive) in the experiment with SF-295. Besides, the GI50 in the experiment on UACC-62 was 5.61 µM (inactive); with 786-0, 48.4 µM (inactive); with HCT-116 it was 36.6 µM (inactive); with IGROV-1, > 100 µM (inactive); in the experiment with NCI-H522 it was 31.3 µM (inactive); in the experiment with KM12, 31.6 µM (inactive). The GI50 in the experiment with K562 is 27.9 µM (inactive); with RPMI-8226, 20 µM (inactive); in the experiment with LOX IMVI, 28.6 µM (inactive); in the experiment on HT-29 it was 32.9 µM (inactive).
For the compound `CN(C)C(=S)OC(Cn1cncn1)c1ccc(Cl)cc1Cl` (stereo unspecified), the GI50 in the experiment on A549, with ACHN, with SN12C, in the experiment on TK-10, in the experiment on UO-31 and in the experiment with SF-295 was > 100 µM (inactive) each time. The GI50 in the experiment on UACC-62, in the experiment with 786-0, in the experiment on HCT-116, in the experiment with IGROV-1, in the experiment on NCI-H522 and in the experiment on KM12 was > 100 µM (inactive) throughout. Moreover, the GI50 in the experiment with K562, in the experiment on RPMI-8226, in the experiment on LOX IMVI and in the experiment with HT-29 was > 100 µM (inactive) throughout.
For `O=C(O)C[C@@H](Cl)[C@H](NC(=O)OCc1ccccc1)C(=O)O`, the GI50 with A549, in the experiment with ACHN, in the experiment with SN12C, in the experiment with TK-10, with UO-31 and in the experiment on SF-295 was > 100 µM (inactive) in each case. Also, the GI50 in the experiment on UACC-62, in the experiment with 786-0, in the experiment on HCT-116, with IGROV-1, in the experiment on NCI-H522 and with KM12 was > 100 µM (inactive) in each case. In addition, the GI50 with K562, in the experiment with RPMI-8226, in the experiment with LOX IMVI and in the experiment on HT-29 was > 100 µM (inactive) each time.
Consider `COC(=O)C1CCC2(C)[C@H](CCC3O[C@]32C)[C@@]1(C)CC(=O)c1ccoc1` (stereo partly specified), for which the GI50 in the experiment with A549 was > 100 µM (inactive); in the experiment on ACHN it was 34.4 µM (inactive); in the experiment with SN12C, > 100 µM (inactive); in the experiment with TK-10 it was 36.9 µM (inactive); in the experiment with UO-31, 27.9 µM (inactive); in the experiment on SF-295 it was > 100 µM (inactive). Further, the GI50 in the experiment on UACC-62 was 88.5 µM (inactive); in the experiment on 786-0 it was > 100 µM (inactive); with HCT-116 it was 65.6 µM (inactive); with IGROV-1, 58.6 µM (inactive); in the experiment with NCI-H522 it was 21.2 µM (inactive); with KM12, 42.2 µM (inactive). For the same compound, the results for the GI50 with K562, with RPMI-8226 and in the experiment with LOX IMVI were 46.1 µM (inactive), 52.7 µM (inactive) and > 100 µM (inactive), respectively.
